Reference: US9670190B2, “Pyridinyl and pyrimidinyl sulfonamide derivatives as chemokine receptor modulators” (Allergan, Inc., priority 2013, dated 2017)

Biological target: T1, CCR2 (Homo sapiens, UniProt P41597)
T1 construct: expressed in transfected cells
Assay: CCR2 calcium activity assay (FLIPR Tetra) in HEK-Gqi5 cells stably expressing CCR2
Format: cell-based
Details: calcium activity on FLIPR Tetra, chemokine positive control agonist; for IC50: read-out: IC50 (nM), activity at CCR2 receptor
Procedure: HEK-Gqi5 cells stably expressing CCR2 were cultured in DMEM high glucose, 10% FBS, 1% PSA, 400 μg/ml geneticin and 50 μg/ml hygromycin. Appropriate positive control chemokines (MCP-1, MIP1A or RANTES) was used as the positive control agonist for screening compound-induced calcium activity assayed on the FLIPR^Tetra. The drug plates were prepared in 384-well microplates using the EP3 and the MultiPROBE robotic liquid handling systems. Compounds were synthesized and tested for CCR2 activity.

T1 sequence (P41597 whole entry, species assumed): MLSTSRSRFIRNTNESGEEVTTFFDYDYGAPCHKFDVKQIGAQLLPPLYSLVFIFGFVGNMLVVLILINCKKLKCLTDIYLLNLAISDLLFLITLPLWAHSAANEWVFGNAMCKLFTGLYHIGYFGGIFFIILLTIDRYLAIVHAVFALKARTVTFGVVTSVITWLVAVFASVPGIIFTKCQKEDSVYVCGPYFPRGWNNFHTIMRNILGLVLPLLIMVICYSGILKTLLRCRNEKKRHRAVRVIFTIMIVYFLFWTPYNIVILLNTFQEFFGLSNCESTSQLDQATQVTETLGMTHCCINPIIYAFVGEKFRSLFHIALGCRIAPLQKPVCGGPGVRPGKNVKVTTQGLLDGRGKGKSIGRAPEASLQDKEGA

Row | Compound | % ANTAGONISM [%] | IC50 [nM]
1 | O=S(=O)(Nc1cncnc1SCc1ccccc1)c1cc2ccccc2o1 [Compound 1, N-[4-(benzylsulfanyl)pyrimidin-5-yl]-1-benzofuran-2-sulfonamide] | 44 | –
2 | O=S(=O)(Cc1ccccc1)c1cnccc1NS(=O)(=O)c1cc2ccccc2o1 [Compound 6, N-[3-(benzylsulfonyl)pyridin-4-yl]-1-benzofuran-2-sulfonamide] | 95 | 17
3 | O=S(=O)(Nc1ccncc1SCc1ccccc1)c1cc2ccccc2o1 [Compound 4, N-[3-(benzylsulfanyl)pyridin-4-yl]-1-benzofuran-2-sulfonamide] | 100 | 485
4 | O=S(=O)(Cc1ccccc1)c1ncncc1NS(=O)(=O)c1cc2ccccc2o1 [Compound 2, N-[4-(benzylsulfonyl)pyrimidin-5-yl]-1-benzofuran-2-sulfonamide] | 101 | 135
5 | O=S(=O)(Nc1cc(Cl)cnc1SCc1ccccc1)c1ccc(Cl)c(Cl)c1 [Compound 7, N-[2-(benzylsulfanyl)-5-chloropyridin-3-yl]-3,4-dichlorobenzenesulfonamide] | 46 | –
6 | O=S(=O)(Nc1cc(Cl)cnc1SCc1ccccc1)c1ccc(Cl)s1 [Compound 8, N-[2-(benzylsulfanyl)-5-chloropyridin-3-yl]-5-chlorothiophene-2-sulfonamide] | 60 | –
7 | O=S(=O)(Nc1cc[n+]([O-])cc1SCc1ccccc1)c1cc2ccccc2o1 [Compound 5, N-[3-(benzylsulfanyl)-1-oxidopyridin-4-yl]-1-benzofuran-2-sulfonamide] | 94 | 8
8 | O=S(=O)(Nc1cncnc1[S+]([O-])Cc1ccccc1)c1cc2ccccc2o1 (centres unmarked) [Compound 3, N-[4-(benzylsulfinyl)pyrimidin-5-yl]-1-benzofuran-2-sulfonamide] | 95 | 588

Next, values leading:

Row | % ANTAGONISM [%] | IC50 [nM] | Compound
9 | 97 | 37 | O=S(=O)(Cc1ccccc1)c1ncc(Cl)cc1NS(=O)(=O)c1ccc(Cl)c(Cl)c1 [Compound 9, N-[2-(benzylsulfonyl)-5-chloropyridin-3-yl]-3,4-dichlorobenzenesulfonamide]
10 | 87 | 119 | O=S(=O)(Nc1cc(Cl)cnc1[S+]([O-])Cc1ccccc1)c1ccc(Cl)c(Cl)c1 (centres unmarked) [Compound 10, N-[2-(benzylsulfinyl)-5-chloropyridin-3-yl]-3,4-dichlorobenzenesulfonamide]
11 | 77 | – | O=S(=O)(Nc1cc(Cl)cnc1[S+]([O-])Cc1ccccc1)c1ccc(Cl)s1 (centres unmarked) [Compound 12, N-[2-(benzylsulfinyl)-5-chloropyridin-3-yl]-5-chlorothiophene-2-sulfonamide]
12 | 89 | 263 | O=S(=O)(Cc1ccccc1)c1ncc(Cl)cc1NS(=O)(=O)c1ccc(Cl)s1 [Compound 11, N-[2-(benzylsulfonyl)-5-chloropyridin-3-yl]-5-chlorothiophene-2-sulfonamide]
